Measurements taken from patent US20260008995A1, “ISOLATED […], COMPOSITIONS COMPRISING THE SAME, AND USES THEREOF” (MOON (GUANGZHOU) BIOTECH CO., LTD., priority 2023, published 2026).

How the values were obtained:
[1] = system: Strain MNH06163; test: antibiotic susceptibility testing, disk diffusion test; type: cell-based, Christensenella sp.; settings: for MNH06163 Inhibition Zone Diameter: disk diffusion, strain MNH06163; for susceptibility of strain MNH06163 to the antibiotic: result in words
Description: (§1) Antibiotic susceptibility testing was performed separately for each strain using the disk diffusion test.

[2] = system: Strain MNH04863; test: as above; type: cell-based, Christensenella sp.; settings: for MNH04863 Inhibition Zone Diameter: disk diffusion, strain MNH04863; for susceptibility of strain MNH04863 to the antibiotic: result in words
Description: as §1

[3] = system: Strain MNH05119; test: as above; type: cell-based, Christensenella sp.; settings: for MNH05119 Inhibition Zone Diameter: disk diffusion, strain MNH05119; for susceptibility of strain MNH05119 to the antibiotic: result in words
Description: as §1

[4] = system: type II diabetic mice (db/db); test: combination of MNH05119 and metformin in type II diabetic model mice (Example 7); type: in vivo, BKS-Leprem2Cd479/Gpt (db/db) mice; settings: 28 days, MNH05119 2×10^10 CFU/mouse twice daily, metformin 250 mg/kg once daily, oral gavage
Description: (1) Experimental animals: The experimental mice were BKS-Leprem2Cd479/Gpt (db/db) mice, aged 5-6 weeks, 32 mice in total, purchased from GuangDong GemPharmatech Co., Ltd.
The activated strain was inoculated in MM01 liquid medium and cultured anaerobically to obtain a sufficient amount of cultures. These cultures were centrifuged, concentrated and resuspended in a solvent to obtain the subjects with purity and viable bacteria counts (1×10^11 CFU/mL) that satisfy the requirements of the animal experiments.
3) Negative control (HFD-control group): PBS-Cys was used as a negative control.
5) Experimental procedure: 5 to 6-week-old of 32 BKS-Leprem2Cd479/Gpt (db/db) male
mice were randomly grouped according to their body weights after quarantine, with 8 mice/group divided into 4 groups. […] All data were expressed as mean±SD, graphed and statistically analyzed using GraphPad Prism 8.0.2 software. […]
6) Oral Glucose Tolerance Test (OGTT): On the 27th day (Day27) of administration, OGTT was determined after 12 h of fasting (e.g., fasting from 20:30:00 μm to 08:30:00 μm the following day). The fasting body weights of the mice were measured and glucose was administered by gavage at a dose of 2 g/kg (glucose g/mouse fasting body weight kg). Fasting blood glucose as well as blood glucose values at 15 min, 30 min, 60 min, 90 min and 120 min post-glucose administration were measured.

| Compound | MNH06163 Inhibition Zone Diameter [1] [mm] | susceptibility of strain MNH06163 to the antibiotic [1] | MNH04863 Inhibition Zone Diameter [2] [mm] | susceptibility of strain MNH04863 to the antibiotic [2] | MNH05119 Inhibition Zone Diameter [3] [mm] | susceptibility of strain MNH05119 to the antibiotic [3] | reduction of fasting blood glucose value compared to negative control group [4] [%] |
| --- | --- | --- | --- | --- | --- | --- | --- |
| O=C(O)c1cn(C2CC2)c2cc(N3CCNCC3)c(F)cc2c1=O [Ciprofloxacin (CFX), Ciprofloxacin] | 0 | resistance | 0 | resistance | 0 | resistance | – |
| CO/N=C(\C(=O)N[C@@H]1C(=O)N2C(C(=O)O)=C(CSc3nc(=O)c(=O)[nH]n3C)CS[C@H]12)c1csc(N)n1 [Ceftriaxone (CTR), Ceftriaxone] | 0 | resistance | 37.32 | sensitive | 0 | resistance | – |
| CCC[C@@H]1C[C@@H](C(=O)N[C@@H]([C@H]2O[C@H](SC)[C@H](O)[C@@H](O)[C@H]2O)[C@@H](C)O)N(C)C1 [Lincomycin (LIN), Lincomycin] | 0 | resistance | 29.86 | sensitive | 0 | resistance | – |
| CN(C)C(=N)N=C(N)N [metformin] | – | – | – | – | – | – | 50 |
| Gentamycin [Gentamycin (GEN)] | 0 | resistance | 0 | resistance | 0 | resistance | – |
| CN(C)[C@@H]1C(O)=C(C(N)=O)C(=O)[C@@]2(O)C(O)=C3C(=O)c4c(O)cccc4[C@@](C)(O)[C@H]3C[C@@H]12 [Tetracycline (TET), Tetracycline] | 18.14 | – | 46.11 | – | 24.12 | – | – |
| O=C(N[C@H](CO)[C@H](O)c1ccc([N+](=O)[O-])cc1)C(Cl)Cl [Chloramphenicol (CLM), Chloramphenicol] | 21.59 | sensitive | 38.88 | sensitive | 32.49 | sensitive | – |
| Penicillin [Penicillin (PEN)] | 0 | resistance | 43.06 | sensitive | 0 | resistance | – |
| CC1(C)S[C@@H]2[C@H](NC(=O)[C@H](N)c3ccccc3)C(=O)N2[C@H]1C(=O)O [Ampicillin (AMP), Ampicillin] | 0 | resistance | 0 | resistance | 0 | resistance | – |
| CC[C@H]1OC(=O)[C@H](C)[C@@H](O[C@H]2C[C@@](C)(OC)[C@@H](O)[C@H](C)O2)[C@H](C)[C@@H](O[C@@H]2O[C@H](C)C[C@H](N(C)C)[C@H]2O)[C@](C)(O)C[C@@H](C)C(=O)[C@H](C)[C@@H](O)[C@]1(C)O [Erythromycin (ERM), Erythromycin] | 8.72 | sensitive | 16.82 | sensitive | 31.65 | sensitive | – |
| Compound sulfamethoxazole [sulfamethoxazole (T/S)] | 0 | resistance | 0 | resistance | 0 | resistance | – |
